# From patent publication US20240148671A1, “METHODS FOR IMPROVING POULTRY HEALTH” (CORNELL UNIVERSITY, priority 2021, published 2024)
# Marks after values point to notes of the source that are not given here.
# Legend:
# [1] = Fe and Zn content in the serum and liver samples; assay type: in vivo, Gallus gallus
# Procedure: (§1) The pure resveratrol and pterostilbene were individually diluted in 18 MΩ H2O. The intra-amniotic administration followed the methodology previously described. On the 17th day of embryonic development, the eggs with viable embryos (n=60) were randomly allocated into 6 groups (n=10) with a similar weight frequency distribution. For the intra-amniotic treatment, 1 mL of solution per egg was injected into the amniotic fluid (via candling) with the aid of a 21-gauge needle. After the procedure, the injection sites were sealed with cellophane tape, and the eggs were distributed into six groups: (1) no injection; (2) 18 MΩ H2O; (3) 5% inulin; (4) 5% resveratrol; (5) 5% pterostilbene; and (6) synergistic: 4.75% resveratrol and 0.25% pterostilbene. […] The eggs were equally distributed in each incubator location to reduce possible allocation bias. Upon hatching (21 days), the hatchlings were euthanized by CO2 exposure, and the blood, liver, heart, pectoral muscle, small intestine and cecum were obtained.
# The serum (50 μL) and liver (0.5 g) samples were mixed with 3.0 mL of a 60:40 (v/v) solution of nitric acid (HNO3) and perchloric acid (HClO4) and incubated overnight. After this, the samples were heated for 2 hours at 120° C. and added to 0.25 mL of 40 μg/g yttrium (internal standard), and the block temperature was increased to 145° C. for 2 h and then 190° C. for 10 min. At the end of these procedures, the samples were cooled, diluted to a total volume of 20 mL, mixed and transferred into autosampler tubes for analysis (inductively coupled plasma atomic emission spectrometer) (Thermo, Franklin, MA, USA).
# cecal microbiome = experiment: 16S rRNA gene sequencing of the cecal microbiota; assay type: in vivo, Gallus gallus; conditions: cecal content at hatch
# Procedure: as §1
# As was formerly described, cecal samples were used to extract microbial genomic DNA (PowerSoil DNA isolation kit, MoBio Laboratories Ltd., Carlsbad, CA, USA). […] The PCR products were purified (Beckman Coulter, Atlanta, GA, USA) and quantified (Quant-iT PicoGreen dsDNA quantitation kit, Invitrogen, Carlsbad, CA, USA). […]
# The 16S rRNA gene sequence analysis was performed using QIIME2 as previously described. The sequence reads were demultiplexed by per-sample barcodes, and the Divisive Amplicon Denoising Algorithm (DADA2) was used to correct the Illumina-sequenced amplicon read errors. […] The alpha and β diversity were calculated from samples containing at least 9.800 sequences. The alpha diversity parameter, a measure of the richness of the bacterial community, was calculated using the Shannon Index, and the beta diversity was assessed by a Jaccard similarity distance matrix. […]
# The values in this paper were expressed as means and standard errors of the means (SEM). […] The results were analyzed by Analysis of Variance (ANOVA). […]
# [2] = liver, intra-amniotic 1 mL/egg on day 17, at hatch, mean ± SEM, n=8
# [3] = serum, intra-amniotic 1 mL/egg on day 17, at hatch, mean ± SEM, n=8
smiles,measurement,setting,value
"Oc1ccc(C=Cc2cc(O)cc(O)c2)cc1 [5% Resveratrol, Resveratrol]",Liver iron concentration vs inulin positive control,[1]; compared with the inulin positive control,similar
same,Liver Iron (μg/g),[1]; [2],46.45 ± 4.71 ^a μg/g
same,Liver Zinc (μg/g),[1]; [2],16.72 ± 1.58 ^b μg/g
same,Serum Iron (μg/g),[1]; [3],2.42 ± 0.23 ^b μg/g
same,Serum Zinc (μg/g),[1]; [3],0.97 ± 0.12 ^bc μg/g
same,"β diversity of the cecal microbiome (Jaccard distances), comparison between groups","cecal microbiome; n=5, 5% inulin vs all other experimental groups (p<0.01), 5% pterostilbene vs 18 MΩ H2O control (p<0.05), stilbene groups among each other",strong clustering
same,Most differentially enriched taxa (LEfSe) vs no injection control,"cecal microbiome; compared with the no injection control group, p<0.05 (FIGS. 5A-5B)",Enterobacteriales order and Enterobacteriaceae family
